Assay results: patent publication EP1282414B1, “FELBAMATE DERIVED COMPOUNDS FOR TREATING NEUROPATHIC PAIN” (University of Virginia Patent Foundation, priority 2000, dated 2001)
Marks after values point to notes of the source that are not given here.

Tests used:
focal seizures = assay: Hippocampal kindling model (kindled rats), i.p.; type: in vivo, adult male Sprague-Dawley rats; set-up: key to Seizure Score ± S.E.M.: Racine seizure score (stage 5 = generalized seizure); conditions: for Number Protected / Number Tested / Afterdischarge Duration (sec) ± S.E.M / Seizure Score ± S.E.M.: i.p.
From the text: The hippocampal kindling model can be used to evaluate a compound's ability to affect both the expression and acquisition of focal seizures. The hippocampal kindling paradigm as described by Lothman and Williamson (Lothman, 1994) allows the temporal effects of a drug to be evaluated in a single animal. This procedure requires the surgical placement ofbipolar electrodes in the ventral hippocampus of adult male Sprague-Dawley rats. Stage five behavioral seizures are produced by using a stimulus consisting of a 50 Hz, 10 s train of 1 ms biphasic 200 uA pulses delivered every 30 min for 6 hours (12 stimuli per day) on alternating days for a total of 60 stimulations (five stimulus days). Prior to evaluating a candidate's anticonvulsant activity, a drug free control period consisting of supramaximal stimulations are recorded to verify the stability of a stage five generalized seizure.
A single dose of the candidate compound is then administered intraperitoneally (i.p.), 15 min following the last control stimulation. The anticonvulsant activity of the drug is assessed every 30 min for three to four hours starting 15 min after administering the test material. After each stimulation, individual Racine seizure scores and afterdischarge durations are recorded. Rats are used again in drug trials after four to five drug- and stimulus-free days.

[1] = Minimal neurotoxicity (TOX), rotorod test, mice i.p.; type: in vivo; conditions: in vivo, ip; mouse, I.P.
From the text: (§1) The fluoro derivatives synthesized were submitted to the National Institute of Neurological Disorders and Stroke (NINDS) for evaluation in a standard panel of assays. Two convulsant tests (MES and scMET), and a toxicity screen (rotorod in mice, positional sense and gait in rats) were employed for evaluating the compounds activity as neuroprotecting agents. These testing procedures are described in detail in Molecular and Cellular Targets for Anti-epileptic Drugs, eds. […] The felbamate derivatives were evaluated for anticonvulsant activity following intraperitoneal (i.p.) administration in mice and oral administration in rats. […]

mice = assay: as above; type: in vivo; conditions: for TOX, number of animals exhibiting toxic effects / total number of animals tested: mice i.p.
From the text: as §1

[2] = Minimal neurotoxicity (TOX), positional sense and gait and stance tests, rats p.o.; type: in vivo; conditions: in vivo, po; rat
From the text: (§2) The fluoro derivatives synthesized were submitted to the National Institute of Neurological Disorders and Stroke (NINDS) for evaluation in a standard panel of assays. Two convulsant tests (MES and scMET), and a toxicity screen (rotorod in mice, positional sense and gait in rats) were employed for evaluating the compounds activity as neuroprotecting agents. These testing procedures are described in detail in Molecular and Cellular Targets for Anti-epileptic Drugs, eds. […] The felbamate derivatives were evaluated for anticonvulsant activity following intraperitoneal (i.p.) administration in mice and oral administration in rats.
(§3) Rats are examined for behavioral toxicity by the positional sense test and a gait and stance test. […] In the gait and stance test, neurotoxicity is indicated by a circular or zigzag gait, ataxia, abnormal spread of the legs, abnormal posture, tremor hyperactivity, lack of exploratory behavior, somnolence, stupor or catalepsy. […]

rats = assay: as above; type: in vivo; conditions: for TOX, number of animals exhibiting toxic effects / total number of animals tested: rat p.o., 30 mg/kg
From the text: as §2, §3

[3] = Dose Responses, 25 mg/kg (time not given)
[4] = Dose Responses, 50 mg/kg (time not given)
[5] = Dose Responses, 100 mg/kg (time not given)

## NC(=O)OCC(F)(COC(N)=O)c1ccccc1 [fluoro felbamate, 2-Fluoro-2-phenyl-1,3-propanediol dicarbamate]
Focal seizures; 100mg/kg
  change in afterdischarge duration (in words): corresponding decrease
  change in seizure score (in words): significant drop
Focal seizures; Dose Responses, 25 mg/kg
  Number Protected / Number Tested: 0/7
Focal seizures; [3]
  Afterdischarge Duration (sec) ± S.E.M: 71.43 ± 5.50 s
  Seizure Score ± S.E.M.: 4.57 ± 0.20
Focal seizures; Dose Responses, 50 mg/kg
  Number Protected / Number Tested: 3/7
Focal seizures; [4]
  Afterdischarge Duration (sec) ± S.E.M: 68.57 ± 20.14 s
  Seizure Score ± S.E.M.: 2.86 ± 0.83
Focal seizures; Dose Responses, 100 mg/kg
  Number Protected / Number Tested: 7/8^a
Focal seizures; [5]
  Afterdischarge Duration (sec) ± S.E.M: 29.00 ± 10.86 s
  Seizure Score ± S.E.M.: 1.50 ± 0.57
Focal seizures; 25 mg/kg, 15 min
  Afterdischarge Duration (sec) ± S.E.M: 77.29 ± 4.91 s
  Seizure Score ± S.E.M.: 4.86 ± 0.14
Focal seizures; 25 mg/kg, 45 min
  Afterdischarge Duration (sec) ± S.E.M: 71.43 ± 5.50 s
  Seizure Score ± S.E.M.: 4.57 ± 0.20
Focal seizures; 25 mg/kg, 75 min
  Afterdischarge Duration (sec) ± S.E.M: 64.43 ± 11.19 s
  Seizure Score ± S.E.M.: 4.00 ± 0.69
Focal seizures; 25 mg/kg, 105 min
  Afterdischarge Duration (sec) ± S.E.M: 70.29 ± 4.85 s
  Seizure Score ± S.E.M.: 4.57 ± 0.20
Focal seizures; 25 mg/kg, 135 min
  Afterdischarge Duration (sec) ± S.E.M: 53.86 ± 9.33 s
  Seizure Score ± S.E.M.: 4.43 ± 0.57
Focal seizures; 25 mg/kg, 165 min
  Afterdischarge Duration (sec) ± S.E.M: 59.29 ± 3.28 s
  Seizure Score ± S.E.M.: 4.71 ± 0.18
Focal seizures; 25 mg/kg, 195 min
  Afterdischarge Duration (sec) ± S.E.M: 54.00 ± 9.62 s
  Seizure Score ± S.E.M.: 3.86 ± 0.67
Focal seizures; 25 mg/kg, 225 min
  Afterdischarge Duration (sec) ± S.E.M: 53.29 ± 9.03 s
  Seizure Score ± S.E.M.: 4.00 ± 0.69
Focal seizures; 25 mg/kg, 255 min
  Afterdischarge Duration (sec) ± S.E.M: 64.00 ± 3.42 s
  Seizure Score ± S.E.M.: 4.86 ± 0.14
Focal seizures; 50 mg/kg, 15 min
  Afterdischarge Duration (sec) ± S.E.M: 67.14 ± 12.39 s
  Seizure Score ± S.E.M.: 3.86 ± 0.70
Focal seizures; 50 mg/kg, 45 min
  Afterdischarge Duration (sec) ± S.E.M: 68.57 ± 20.14 s
  Seizure Score ± S.E.M.: 2.86 ± 0.83
Focal seizures; 50 mg/kg, 75 min
  Afterdischarge Duration (sec) ± S.E.M: 63.00 ± 17.45 s
  Seizure Score ± S.E.M.: 3.14 ± 0.83
Focal seizures; 50 mg/kg, 105 min
  Afterdischarge Duration (sec) ± S.E.M: 60.86 ± 14.93 s
  Seizure Score ± S.E.M.: 3.43 ± 0.90
Focal seizures; 50 mg/kg, 135 min
  Afterdischarge Duration (sec) ± S.E.M: 65.00 ± 13.10 s
  Seizure Score ± S.E.M.: 3.71 ± 0.64
Focal seizures; 50 mg/kg, 165 min
  Afterdischarge Duration (sec) ± S.E.M: 43.14 ± 14.67 s
  Seizure Score ± S.E.M.: 2.71 ± 0.97
Focal seizures; 50 mg/kg, 195 min
  Afterdischarge Duration (sec) ± S.E.M: 52.86 ± 14.59 s
  Seizure Score ± S.E.M.: 3.14 ± 0.83
Focal seizures; 50 mg/kg, 225 min
  Afterdischarge Duration (sec) ± S.E.M: 39.86 ± 10.98 s
  Seizure Score ± S.E.M.: 3.00 ± 0.87
Focal seizures; 50 mg/kg, 255 min
  Afterdischarge Duration (sec) ± S.E.M: 33.29 ± 11.76 s
  Seizure Score ± S.E.M.: 2.57 ± 0.72
Focal seizures; 100 mg/kg, 15 min
  Afterdischarge Duration (sec) ± S.E.M: 40.75 ± 15.74 s
  Seizure Score ± S.E.M.: 1.75 ± 0.73
Focal seizures; 100 mg/kg, 45 min
  Afterdischarge Duration (sec) ± S.E.M: 29.00 ± 10.86 s
  Seizure Score ± S.E.M.: 1.50 ± 0.57
Focal seizures; 100 mg/kg, 75 min
  Afterdischarge Duration (sec) ± S.E.M: 38.63 ± 12.58 s
  Seizure Score ± S.E.M.: 1.88 ± 0.67
Focal seizures; 100 mg/kg, 105 min
  Afterdischarge Duration (sec) ± S.E.M: 53.38 ± 12.59 s
  Seizure Score ± S.E.M.: 2.38 ± 0.65
Focal seizures; 100 mg/kg, 135 min
  Afterdischarge Duration (sec) ± S.E.M: 33.63 ± 12.88 s
  Seizure Score ± S.E.M.: 2.00 ± 0.76
Focal seizures; 100 mg/kg, 165 min
  Afterdischarge Duration (sec) ± S.E.M: 43.38 ± 12.79 s
  Seizure Score ± S.E.M.: 2.75 ± 0.65
Focal seizures; 100 mg/kg, 195 min
  Afterdischarge Duration (sec) ± S.E.M: 45.25 ± 13.33 s
  Seizure Score ± S.E.M.: 2.25 ± 0.70
Focal seizures; 100 mg/kg, 225 min
  Afterdischarge Duration (sec) ± S.E.M: 47.38 ± 14.80 s
  Seizure Score ± S.E.M.: 2.50 ± 0.73
Focal seizures; 100 mg/kg, 255 min
  Afterdischarge Duration (sec) ± S.E.M: 45.38 ± 13.92 s
  Seizure Score ± S.E.M.: 2.50 ± 0.65
[1]
  ED50: 115 mg/kg
mice; 3 mg/kg, 0.5h
  TOX, number of animals exhibiting toxic effects / total number of animals tested: 0/4
mice; 3 mg/kg, 4.0h
  TOX, number of animals exhibiting toxic effects / total number of animals tested: 0/4
mice; 10 mg/kg, 0.5h
  TOX, number of animals exhibiting toxic effects / total number of animals tested: 0/4
mice; 10 mg/kg, 4.0h
  TOX, number of animals exhibiting toxic effects / total number of animals tested: 0/4
mice; 30 mg/kg, 0.5h
  TOX, number of animals exhibiting toxic effects / total number of animals tested: 1/4
mice; 30 mg/kg, 4.0h
  TOX, number of animals exhibiting toxic effects / total number of animals tested: 0/2
mice; 100 mg/kg, 0.5h
  TOX, number of animals exhibiting toxic effects / total number of animals tested: 4/8
mice; 100 mg/kg, 4.0h
  TOX, number of animals exhibiting toxic effects / total number of animals tested: 0/4
mice; 300 mg/kg, 0.5h
  TOX, number of animals exhibiting toxic effects / total number of animals tested: 4/4
mice; 300 mg/kg, 4.0h
  TOX, number of animals exhibiting toxic effects / total number of animals tested: 2/2
mice; mice, i.p., toxicity relative to MES ED50
  safety ratio: at least five
[2]
  ED50: > 500 mg/kg
rats; 0.25h
  TOX, number of animals exhibiting toxic effects / total number of animals tested: 0/4
rats; 0.5h
  TOX, number of animals exhibiting toxic effects / total number of animals tested: 0/4
rats; 1.0h
  TOX, number of animals exhibiting toxic effects / total number of animals tested: 0/4
rats; 2.0h
  TOX, number of animals exhibiting toxic effects / total number of animals tested: 0/4
rats; 4.0h
  TOX, number of animals exhibiting toxic effects / total number of animals tested: 1/4
rats; rats, oral administration
  no toxicity at doses up to: up to 500 mg/kg
